In patent US20050220861A1, “Colonic release compostion” (priority 2002, published 2005):
Where two headings read alike, the source gives them in different places. Values belong to the compound of their own block, whether it stands above or below them.

Columns and labels:
[1] = human, in vivo, po
Procedure: Four phase I studies have been completed. In the first of these, an ethyl cellulose to amylose ratio of 5:1 was used with a 10% weight gain. The second and third studies, investigated the effect of a thicker coat (20% weight gain) at a 4:1 ethylcellulose to amylose ratio. All other features of the comparison formulation were the same.
(§1) Capsules containing coated pellets of prednisolone sodium metasulphobenzoate, equivalent to 60 mg prednisolone, were administered to seven healthy, fasted volunteers. Progress of the dose through the gastrointestinal tract was followed over 24 hours by gamma-scintigraphy after the co-administration of ethylcellulose coated ^111indium labelled non-pareils. Plasma levels of prednisolone were determined at various time points up to 48 hours after administration. Excreted drug pellets were harvested over five days and residual drug levels determined.
(§2) The trial comprised a combined gamma scintigraphic and pharmacokinetic study with excreted pellet analysis to the same design as the first Phase I study (above) following administration of the prednisolone sodium metasulphobenzoate ester at a dose of 94.2 mg, equivalent to 60 mg of prednisolone. In this second study, the thickness of the coating of the pellets was increased and the proportion of amylose was increased in the coat.
(§3) The trial comprised a combined gamma scintigraphic and pharmacokinetic study with excreted pellet analysis to the same design as the first Phase I study (above) following administration of prednisolone sodium metasulphobenzoate ester at a dose of 94.2 mg, equivalent to 60 mg prednisolone. In this third study, administering the coated prednisolone pellets to volunteers in the fed and fasted state was examined.
The pellets were produced as described in Example 2.
This trial used a higher dose of prednisolone sodium metasulphobenzoate, equivalent to 100 mg of prednisolone.

[2] = for drug content of the formulation released from the pellets / prednisolone sodium metasulphobenzoate retained in the excreted pellets, mean: 3rd Phase I
Procedure: as §1, §2, §3

[3] = set-up: unit not given beside the values; conditions: in vivo, po, 40 mg; cited from earlier work
[4] = set-up: Cmax (prednisolone) / AUC (prednisolone): unit not given beside the values; conditions: cited from earlier work
[5] = McIntyre et al 1985, 20 mg, rectal

AUC (prednisolone) ([1]; 60 mg): 1441 ± 541 | Cmax (prednisolone) ([1]; 60 mg): 168 ± 56 | AUC ([1]; 100 mg): 152 ng·mL·h | Cmax ([1]; 100 mg): 0.0189 µg/mL | amount of prednisolone recovered from pellets harvested from the faeces ([2]; 1st Phase I, 60 mg oral, average of all subjects): 2.5 ± 1.12 mg | prednisolone recovered from excreted pellets, % of the administered dose ([2]; 1st Phase I, all cases): less than 5% | drug excreted in the pellets, % of the administered dose ([2]; 2nd Phase I): less than 2% | arrival of the drug pellets at the ileo-caecal junction ([2]; 2nd Phase I, amylose:ethylcellulose 1:4, 20% weight gain): 5.9 ± 2.0 h | mean quantity of drug excreted in the pellets, determined as prednisolone sodium metasulphobenzoate ([2]; 2nd Phase I, dose 94.2 mg ester): 1.7 mg | drug content of the formulation released from the pellets ([2]; fasted): over 90% | prednisolone sodium metasulphobenzoate retained in the excreted pellets, mean ([2]; fasted, dose 94.2 mg ester): 6.1 ± 1.0 mg | drug content of the formulation released from the pellets ([2]; fed): over 90% | prednisolone sodium metasulphobenzoate retained in the excreted pellets, mean ([2]; fed, dose 94.2 mg ester): 3.1 ± 1.2 mg
Structure (SMILES): C[C@]12C=CC(=O)C=C1CC[C@@H]1[C@@H]2[C@@H](O)C[C@@]2(C)[C@H]1CC[C@]2(O)C(=O)COC(=O)c1cccc(S(=O)(=O)[O-])c1.[Na+] [Prednisolone metasulphobenzoate, prednisolone sodium metasulphobenzoate]
AUC (prednisolone) [3]: 2189 ± 475 | Cmax (prednisolone) [3]: 242 ± 58 | AUC ([4]; in vivo, 60 mg): 632 ± 509 ng·mL·h | AUC (prednisolone) ([4]; in vivo, 60 mg): 632 ± 509 | Cmax ([4]; in vivo, 60 mg): 0.147 ± 0.079 µg/mL | Cmax (prednisolone) ([4]; in vivo, 60 mg): 147 ± 79

Structure (SMILES): C[C@]12C=CC(=O)C=C1CC[C@@H]1[C@@H]2[C@@H](O)C[C@@]2(C)[C@H]1CC[C@]2(O)C(=O)COP(=O)(O)O [Prednisolone-21-phosphate]
AUC (prednisolone) [4, 5]: 599 ± 310 | Cmax (prednisolone) [4, 5]: 148 ± 75
